Data on 13 compounds can be found in ChEMBL document CHEMBL1201862, “PubChem BioAssay data set” (2004).

What is called GI50 is the concentration at which growth is held to half of that of the control.

Structures are written as SMILES.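 Grown in 96-well plates, cells were treated for 48 hours with each compound at five concentrations. Insufficient inhibition: endpoint recorded as highest concentration tested. At the GI50, growth is halved.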 Active and inactive are the calls of the source. Cut-off read from the data, not from the text of the source: active = GI50 up to about 1.1 µM and inactive = higher.

Test systems include HCT-116; T47D; Hs-578T; MCF7; A498; UACC-257; 786-0; SK-MEL-2; Malme-3M; SK-MEL-28; UACC-62; CAKI-1; OVCAR-4; MDA-N; SNB-19; SF-295; NCI-H226; U-251; BT-549.
Holding throughout (assay): DTP human tumour cell line panel, 48 h

As for `Cc1cn2c(/C=N/NC(=N)N)c(-c3ccc([N+](=O)[O-])cc3)nc2s1`, the GI50 is 0.227 µM (active) in the experiment on HCT-116; 0.566 µM (active) with T47D; 0.935 µM (active) with Hs-578T; 0.252 µM (active) in the experiment with MCF7; 1.52 µM (inactive) in the experiment with A498; 1.18 µM (inactive) in the experiment on UACC-257. In addition, the 50% growth inhibitory concentration (GI50) was 0.256 µM (active) in the experiment with 786-0; 1.36 µM (inactive) in the experiment on SK-MEL-2; 1.39 µM (inactive) with Malme-3M; 1.57 µM (inactive) with SK-MEL-28; 1.72 µM (inactive) in the experiment with UACC-62; 2.61 µM (inactive) with CAKI-1. For the same compound, the GI50 is 0.169 µM (active) with OVCAR-4; 0.425 µM (active) with MDA-N; 0.357 µM (active) with SNB-19; 1.46 µM (inactive) in the experiment on SF-295; 1.87 µM (inactive) in the experiment on NCI-H226; 0.995 µM (active) in the experiment with U-251.

As to `CCOC(=O)c1csc(NC(=O)CCN2CCOCC2)n1`, the GI50 with T47D was > 100 µM (inactive); in the experiment on MCF7, 43.8 µM (inactive); in the experiment with A498 it was > 100 µM (inactive); in the experiment with UACC-257 it was 92.9 µM (inactive); in the experiment with SK-MEL-2, > 100 µM (inactive); with Malme-3M, 19.3 µM (inactive). In addition, the GI50 was > 100 µM (inactive) in the experiment on SK-MEL-28; > 100 µM (inactive) in the experiment on UACC-62; 32 µM (inactive) in the experiment with CAKI-1; > 100 µM (inactive) in the experiment with OVCAR-4; 59.7 µM (inactive) with MDA-N; > 100 µM (inactive) in the experiment on SNB-19. Moreover, the GI50 in the experiment on SF-295 and in the experiment on U-251 was > 100 µM (inactive) each time.

With `CC1(C)OP(=O)(c2ccccc2)C=C1Br` (stereo not drawn), the GI50 in the experiment with HCT-116, in the experiment on T47D, with Hs-578T, with A498, in the experiment on UACC-257 and in the experiment with 786-0 was > 100 µM (inactive) in each case. The GI50 in the experiment with SK-MEL-2, in the experiment on Malme-3M, in the experiment on SK-MEL-28, with UACC-62, in the experiment with CAKI-1 and in the experiment with OVCAR-4 was > 100 µM (inactive) each time. Besides, the GI50 in the experiment with MDA-N, with SNB-19, in the experiment with SF-295, in the experiment with NCI-H226 and in the experiment on U-251 was > 100 µM (inactive) in each case.

Turning to `CCOC(=O)c1c(SCc2cc(=O)[nH]c(=O)[nH]2)n(-c2ccccc2)c(=S)n(-c2ccccc2)c1=O`, the GI50 in the experiment with HCT-116, in the experiment on T47D, in the experiment with MCF7, in the experiment on BT-549, in the experiment with A498 and in the experiment on UACC-257 was > 100 µM (inactive) throughout. Further, the GI50 in the experiment with 786-0, with SK-MEL-2, with Malme-3M, in the experiment with SK-MEL-28, in the experiment on UACC-62 and with CAKI-1 was > 100 µM (inactive) throughout. Moreover, the GI50 with MDA-N, in the experiment with SNB-19 and in the experiment on U-251 was > 100 µM (inactive) in each case.

`Cc1ccc(-c2cs/c(=N\c3c(C)n(C)n(-c4ccccc4)c3=O)n2CCO)cc1`: the GI50 was 72.9 µM (inactive) in the experiment with MCF7; 74.3 µM (inactive) in the experiment with BT-549; 70 µM (inactive) in the experiment with A498; 53.8 µM (inactive) in the experiment on UACC-257; > 100 µM (inactive) in the experiment on SK-MEL-2; > 100 µM (inactive) in the experiment with SK-MEL-28. Moreover, the GI50 in the experiment on UACC-62, with CAKI-1, in the experiment on OVCAR-4, with MDA-N, in the experiment on SNB-19 and in the experiment with SF-295 was > 100 µM (inactive) in each case. Besides, the GI50 with NCI-H226 and with U-251 was > 100 µM (inactive) throughout.

As to `C[Si](C)(C)CNC(=O)OCc1ccccc1`, the GI50 in the experiment on HCT-116 is > 100 µM (inactive); with T47D, 19.1 µM (inactive); with MCF7 it was > 100 µM (inactive); in the experiment on BT-549, 98.9 µM (inactive); in the experiment with A498, > 100 µM (inactive); in the experiment with UACC-257, > 100 µM (inactive). The GI50 in the experiment with 786-0 is > 100 µM (inactive); in the experiment on SK-MEL-2, > 100 µM (inactive); with SK-MEL-28, > 100 µM (inactive); in the experiment on UACC-62 it was > 100 µM (inactive); with CAKI-1, > 100 µM (inactive); with OVCAR-4, 87.1 µM (inactive). Further, the GI50 was > 100 µM (inactive) in the experiment with MDA-N; > 100 µM (inactive) in the experiment on SNB-19; > 100 µM (inactive) in the experiment on SF-295; 66.4 µM (inactive) with NCI-H226; > 100 µM (inactive) with U-251.

On to `CC[C@@]1(O)C(=O)OCc2c1cc1n(c2=O)Cc2c-1nc1ccccc1c2/C=N\NC(=O)C(N)CCSC` (stereo partly drawn), for which the GI50 was 0.0253 µM (active) with HCT-116; < 0.01 µM (active) in the experiment on T47D; < 0.01 µM (active) in the experiment with MCF7; 0.102 µM (active) in the experiment on BT-549; 0.0628 µM (active) in the experiment with A498; 0.228 µM (active) with UACC-257. Besides, the GI50 in the experiment with 786-0 is < 0.01 µM (active); with SK-MEL-2, 0.713 µM (active); in the experiment with Malme-3M, 0.102 µM (active); in the experiment on SK-MEL-28, 1.03 µM (active); in the experiment on UACC-62, < 0.01 µM (active); in the experiment with CAKI-1 it was < 0.01 µM (active). In addition, the GI50 was 0.299 µM (active) in the experiment on OVCAR-4; 0.224 µM (active) with MDA-N; < 0.01 µM (active) with SNB-19; < 0.01 µM (active) in the experiment on SF-295; < 0.016 µM (active) in the experiment with NCI-H226; < 0.01 µM (active) with U-251.

Take `c1ccc(/N=c2\snc3scc(-c4ccccc4)n23)cc1`: the GI50 in the experiment with A498 is > 100 µM (inactive); in the experiment on UACC-257, 32.5 µM (inactive); with 786-0, 50.5 µM (inactive); with SK-MEL-2 it was 34.8 µM (inactive); in the experiment on Malme-3M, 31.6 µM (inactive); in the experiment with SK-MEL-28, 41 µM (inactive). The GI50 in the experiment with UACC-62 was 30.1 µM (inactive); in the experiment on CAKI-1 it was 49.5 µM (inactive); in the experiment with OVCAR-4 it was 39.6 µM (inactive); in the experiment on SNB-19, 39.2 µM (inactive); in the experiment with SF-295, 37.5 µM (inactive); with NCI-H226 it was 26.7 µM (inactive). In the experiment on U-251, the GI50 is 26.8 µM (inactive).

For `COc1ccc(C2S/C(=C\c3ccc(O)cc3)C(=O)N2NC(=O)Cc2ccccc2)cc1` (stereo not drawn), the GI50 in the experiment on HCT-116, in the experiment with A498, in the experiment on UACC-257, in the experiment with 786-0, with SK-MEL-2 and in the experiment with Malme-3M was > 100 µM (inactive) each time. In addition, the GI50 in the experiment on SK-MEL-28, in the experiment on UACC-62, in the experiment on CAKI-1, in the experiment with OVCAR-4, with SF-295 and in the experiment on NCI-H226 was > 100 µM (inactive) throughout. Besides, the GI50 with U-251 was > 100 µM (inactive).

As for `Clc1cccc(Cl)c1C1ON=C(c2ccccc2)N1C12CC3CC(CC(C3)C1)C2` (stereo not drawn), the GI50 in the experiment with HCT-116 was 10.9 µM (inactive); in the experiment with T47D it was 11.4 µM (inactive); in the experiment with Hs-578T, 24.2 µM (inactive); in the experiment with MCF7, 0.121 µM (active); in the experiment on A498, 56.4 µM (inactive); in the experiment on UACC-257, 3.29 µM (inactive). Moreover, the GI50 in the experiment with 786-0 is 32.4 µM (inactive); with SK-MEL-2, 12.1 µM (inactive); in the experiment with Malme-3M it was 14.8 µM (inactive); in the experiment with SK-MEL-28, 45 µM (inactive); in the experiment with UACC-62 it was 24 µM (inactive); in the experiment on CAKI-1 it was 40.9 µM (inactive). Moreover, the GI50 with OVCAR-4 is 25.3 µM (inactive); in the experiment with MDA-N it was 37.6 µM (inactive); in the experiment with SNB-19, 67.5 µM (inactive); in the experiment on SF-295, > 100 µM (inactive); in the experiment with NCI-H226 it was 43.3 µM (inactive); in the experiment with U-251, 62.5 µM (inactive).

On to `C[C@@H]1CC2(C[C@@H](C)C3[C@@H](CC4(C)CCCC5C6=CC(O)(CC[C@]34C)OC6=CC(=O)OC5(C)C)O2)OC1=O` (stereo partly drawn), for which the GI50 in the experiment with HCT-116, with 786-0, in the experiment on SK-MEL-2, in the experiment with Malme-3M, with SK-MEL-28 and in the experiment on UACC-62 was > 100 µM (inactive) in each case. In addition, the GI50 in the experiment with OVCAR-4, with SNB-19, in the experiment on NCI-H226 and in the experiment on U-251 was > 100 µM (inactive) each time.

For the compound `COc1cc(C2c3cc4c(cc3[C@@H](Nc3ccc(C(=O)O)cc3)C3COC(=O)[C@H]23)OCO4)cc(OC)c1O` (stereo partly drawn), the GI50 with HCT-116 is 19.4 µM (inactive); in the experiment with A498, 18.7 µM (inactive); in the experiment on UACC-257 it was 27.2 µM (inactive); with SK-MEL-2 it was 30.4 µM (inactive); in the experiment with Malme-3M, 13.7 µM (inactive); in the experiment with SK-MEL-28, 27.5 µM (inactive). Besides, the GI50 in the experiment on UACC-62 was 10.6 µM (inactive); in the experiment with CAKI-1, 4.98 µM (inactive); in the experiment with OVCAR-4, 20.2 µM (inactive); in the experiment with SNB-19, 6.14 µM (inactive); with SF-295, 14.1 µM (inactive); in the experiment with NCI-H226, 3.72 µM (inactive).

For `Oc1ccc(-c2nc3ccc(Cl)cc3s2)cc1`, the GI50 was 16 µM (inactive) in the experiment with HCT-116; 7.41 µM (inactive) in the experiment with MCF7; 18.7 µM (inactive) with BT-549; 20 µM (inactive) in the experiment on A498; 19.6 µM (inactive) in the experiment on UACC-257; 18.4 µM (inactive) in the experiment with SK-MEL-2. In addition, the GI50 was 19.3 µM (inactive) with Malme-3M; 16.9 µM (inactive) in the experiment with UACC-62; 20.2 µM (inactive) with CAKI-1; 18.8 µM (inactive) in the experiment on MDA-N; 20.2 µM (inactive) in the experiment on SNB-19; 19.3 µM (inactive) in the experiment with SF-295. Moreover, the GI50 is 20 µM (inactive) in the experiment on NCI-H226 and 19.7 µM (inactive) in the experiment on U-251.
